Reference: patent publication US9809808B2, “Antimicrobial agents” (KATHOLIEKE UNIVERSITEIT LEUVEN K.U. LEUVEN R&D, priority 2008, dated 2017)
Several values for one entry are separate records, joined by “and”; a condition that tells them apart may be missing. Identical values can stand only once. Like-named read-outs stand apart in the source and are kept apart here.

Columns and labels:
P. aeruginosa Br667 = format: cell-based, Pseudomonas aeruginosa
P. putida G1 = format: cell-based, Pseudomonas putida
[1] = test system: Burkholderia pseudomallei; format: cell-based; settings: 30 minutes
Escherichia coli WK6 = format: cell-based
[2] = test system: Salmonella typhimurium LT2; format: cell-based; settings: 30 minutes
[3] = test system: Pseudomonas aeruginosa PAO1p cells; assay: Effect of different EDTA and endolysin concentrations on antibacterial activity of OBPgpLYS and PKOBPgpLYS; format: cell-based
Experimental: To determine the influence of EDTA on the antibacterial activity of unmodified and modified endolysins the antibacterial activity of the unmodified OBPgpLYS endolysin (SEQ ID NO: 7) and the PKOBPgpLYS endolysin (SEQ ID NO: 61) was tested on Pseudomonas aeruginosa PAO1p cells ([…] et al. J Clin Microbiol., 41(3):1192-1202 (2003)) using different concentrations of EDTA and endolysins. Exponential growing bacterial cells (OD600 nm of 0.6) were 100-fold diluted to a final density of about 10^6/ml and incubated for 30 minutes at room temperature without shaking with unmodified endolysin OBPgpLYS (SEQ ID NO: 7) and modified endolysin PKOBPgpLYS (SEQ ID NO: 61). […] Thereby, the following different EDTA concentrations were used: 0 mM, 0.05 mM, 0.5 mM and 10 mM. […] After incubation cell suspensions were diluted three times (respectively 10^5-10^4-10^3 cells/ml) and 100 μl of each dilution was plated out on LB-medium. […] All samples were replicated in threefold. Averages+/-standard deviations are represented.

[4] = test system: Gram-negative strains of Table 12; format: cell-based
[5] = 1.313 μM endolysin, no EDTA, 30 minutes
[6] = 1.313 μM endolysin + 0.5 mM EDTA
[7] = 0.013 μM endolysin, 0 mM EDTA-Na2, 30 minutes
[8] = 0.013 μM endolysin, 0.5 mM EDTA-Na2, 30 minutes
[9] = 0.131 μM endolysin, 0 mM EDTA-Na2, 30 minutes
[10] = 0.131 μM endolysin, 0.5 mM EDTA-Na2, 30 minutes
[11] = 1.315 μM endolysin, 0.05 mM EDTA-Na2, 30 minutes
[12] = 1.315 μM endolysin, 0.5 mM EDTA-Na2, 30 minutes
[13] = 1.315 μM endolysin, 10 mM EDTA-Na2, 30 minutes

Row | Substance | relative inactivation in logarithmic units (log10N0/Ni) (P. aeruginosa Br667) | relative inactivation in logarithmic units (log10N0/Ni) (P. aeruginosa Br667; [5]) | relative inactivation in logarithmic units (log10N0/Ni) (P. putida G1) | relative inactivation in logarithmic units (log10N0/Ni) (P. putida G1; [5]) | relative inactivation in logarithmic units (log10N0/Ni) [1, 6] | relative inactivation in logarithmic units (log10N0/Ni) ([1]; 1.313 μM endolysin, no EDTA) | relative inactivation in logarithmic units (log10N0/Ni) (Escherichia coli WK6) | relative inactivation in logarithmic units (log10N0/Ni) (Escherichia coli WK6; [5]) | relative inactivation in logarithmic units (log10N0/Ni) [2, 6] | relative inactivation in logarithmic units (log10N0/Ni) ([2]; 1.313 μM endolysin, no EDTA) | relative inactivation in logarithmic units (log10N0/Ni) [3, 7] | relative inactivation in logarithmic units (log10N0/Ni) [3, 8] | relative inactivation in logarithmic units (log10N0/Ni) [3, 9] | relative inactivation in logarithmic units (log10N0/Ni) [3, 10] | relative inactivation in logarithmic units (log10N0/Ni) [3, 11] | relative inactivation in logarithmic units (log10N0/Ni) [3, 12] | relative inactivation in logarithmic units (log10N0/Ni) [3, 13] | further results
1 | OBPgpLYS: SEQ ID NO: 7: unmodified modular endolysin of 328 amino acid residues originating from Pseudomonas putida phage OBP | 3.144 +/− 0.223 logarithmic units | 1.082 +/− 0.083 logarithmic units | 4.891 +/− 0.000 logarithmic units | 0.141 +/− 0.027 logarithmic units | 4.08 +/− 0.301 logarithmic units | 0.997 +/− 0.131 logarithmic units | 1.179 +/− 0.200 logarithmic units | 0.681 +/− 0.032 logarithmic units | 0.774 +/− 0.052 logarithmic units | 0.076 +/− 0.011 logarithmic units | 0.956 +/− 0.110 log units | 4.626 +/− 0.287 log units | 2.158 +/− 0.027 log units | 4.599 +/− 0.275 log units | 2.762 +/− 0.091 log units | 4.357 +/− 1.857 log units | 4.888 +/− 0.275 log units | 
2 | PKOBPgpLYS: SEQ ID NO: 61: OBPgpLYS (SEQ ID NO: 7) with N-terminal peptide stretch KRKKRKKRK (SEQ ID NO: 11) | 5.272 +/− 0.573 logarithmic units | 1.163 +/− 0.063 logarithmic units | >4.891 logarithmic units | 0.904 +/− 0.079 logarithmic units | >4.861 logarithmic units | 1.806 +/− 0.287 logarithmic units | 1.695 +/− 0.147 logarithmic units | 1.434 +/− 0.018 logarithmic units | 0.908 +/− 0.037 logarithmic units | 0.127 +/− 0.013 logarithmic units | 0.992 +/− 0.181 log units | 5.204 +/− 0.000 log units | 2.529 +/− 0.184 log units | 5.671 +/− 0.000 log units | 4.145 +/− 0.015 log units | > 5.69 log units and >5.687 log units | > 5.69 log units and >5.687 log units | Δ, difference of activity between OBPgpLYS and PKOBPgpLYS samples ([3]; 0.013 μM endolysin, 0 mM EDTA-Na2): 0.036 log units; Δ, difference of activity between OBPgpLYS and PKOBPgpLYS samples ([3]; 0.013 μM endolysin, 0.5 mM EDTA-Na2): 0.578 log units; Δ, difference of activity between OBPgpLYS and PKOBPgpLYS samples ([3]; 0.131 μM endolysin, 0 mM EDTA-Na2): 0.371 log units; Δ, difference of activity between OBPgpLYS and PKOBPgpLYS samples ([3]; 0.131 μM endolysin, 0.5 mM EDTA-Na2): 1.072 log units; Δ, difference of activity between OBPgpLYS and PKOBPgpLYS samples ([3]; 1.315 μM endolysin, 0 mM EDTA-Na2): 0.5 log units and 0.548 log units; relative inactivation in logarithmic units (log10N0/Ni) ([3]; 1.315 μM endolysin, 0 mM EDTA-Na2, 30 minutes): 3.079 +/− 0.015 log units; Δ, difference of activity between OBPgpLYS and PKOBPgpLYS samples ([3]; 1.315 μM endolysin, 0.05 mM EDTA-Na2): 1.383 log units; Δ, difference of activity between OBPgpLYS and PKOBPgpLYS samples ([3]; 1.315 μM endolysin, 0.5 mM EDTA-Na2): >1.330 log units; Δ, difference of activity between OBPgpLYS and PKOBPgpLYS samples ([3]; 1.315 μM endolysin, 10 mM EDTA-Na2): >0.799 log units; effect compared to unmodified OBPgpLYS (in words) [4]: added effect; interaction with EDTA (in words) [4]: clear synergistic effect
